Results reported in US20260015339A1, “CALIX[4]ARENES WITH HIGH ANTICANCER ACTIVITY” (UNIVERSITE GRENOBLE ALPES, priority 2023, published 2026).

What was measured:
Assay in all cases: PROLiFiler-Cell Panel Screening (CellTiterGlo)
Assay type in all cases: cell-based
U87MG = conditions: Homo sapiens, U-87 MG, Brain, 72 hours
Method: (§1) For the assays, cells were seeded in white cell culture-treated flat and clear bottom 384-well multiwall plates and incubated at 37° C. overnight before the calix[4]arene of the formula (2) or the reference compound were added. After incubation for 72 hours at 37° C. at 5% or 10% CO2 depending on the medium, cell plates were equilibrated to room temperature (i.e. 20° C.) for one hour, CellTiterGlo® reagent from the firm Promega was added and luminescence was measured approximately an hour later using a luminometer.
(§2) Raw data were converted into percent cell viability relative to the high and low control, which were set to 100% and 0%, respectively.

A375 = conditions: Homo sapiens, A-375; Skin, A375, 72 hours
Method: as §1, §2

U118MG = conditions: Homo sapiens, U-118-MG, Brain, 72 hours
Method: as §1, §2

Caki-1 = conditions: Homo sapiens; Kidney, Caki-1, 72 hours
Method: as §1, §2

LnCap = conditions: Homo sapiens, Prostate, 72 hours
Method: as §1, §2

HCC 1569 = conditions: Homo sapiens, HCC1569; Breast, HCC 1569, 72 hours
Method: as §1, §2

NCI-H1563 = conditions: Homo sapiens; Lung, NCI-H1563, 72 hours
Method: as §1, §2

Hep3B2.1-7 = conditions: Liver, Hep3B2.1-7, 72 hours
Method: as §1, §2

DU-145 = conditions: Homo sapiens; Prostate, DU-145, 72 hours
Method: as §1, §2

SW620 = conditions: Homo sapiens, SW-620; Colon, SW620, 72 hours
Method: as §1, §2

EPLC-272H = conditions: Homo sapiens, Lung, 72 hours
Method: as §1, §2

A498 = conditions: Homo sapiens; Kidney, A498, 72 hours
Method: as §1, §2

NCI-H1573 = conditions: Homo sapiens; Lung, NCI-H1573, 72 hours
Method: as §1, §2

HuH7 = conditions: Homo sapiens, Huh-7; Liver, HuH7, 72 hours
Method: as §1, §2

HL-60 = conditions: Homo sapiens; Blood, HL-60, 72 hours
Method: as §1, §2

HT-29 = conditions: Homo sapiens; Colon, HT-29, 72 hours
Method: as §1, §2

JIMT-1 = conditions: Homo sapiens; Breast, JIMT-1, 72 hours
Method: as §1, §2

HCT116 = conditions: Homo sapiens, HCT-116; Colon, HCT116, 72 hours
Method: as §1, §2

EFO-27 = conditions: Homo sapiens; Ovary, EFO-27, 72 hours
Method: as §1, §2

MDA-MB-468 = conditions: Homo sapiens; Breast, MDA-MB-468, 72 hours
Method: as §1, §2

T98G = conditions: Homo sapiens, Brain, 72 hours
Method: as §1, §2

SNU-1 = conditions: Homo sapiens, SNU1; Stomach, SNU-1, 72 hours
Method: as §1, §2

EFM-192A = conditions: Breast, 72 hours
Method: as §1, §2

MDA MB 435 = conditions: Homo sapiens; Skin, MDA MB 435, 72 hours
Method: as §1, §2

A549 = conditions: Homo sapiens; Lung, A549, 72 hours
Method: as §1, §2

SW-1783 = conditions: Homo sapiens, SW1783; Brain, SW-1783, 72 hours
Method: as §1, §2

BT-20 = conditions: Homo sapiens; Breast, BT-20, 72 hours
Method: as §1, §2

AsPC-1 = conditions: Homo sapiens, ASPC1; Pancreas, AsPC-1, 72 hours
Method: as §1, §2

MOLM-13 = conditions: Homo sapiens; Blood, MOLM-13, 72 hours
Method: as §1, §2

K562 = conditions: Homo sapiens; Blood, K562, 72 hours
Method: as §1, §2

SNU840 = conditions: SNU-840; Ovary, SNU840, 72 hours
Method: as §1, §2

DV90 = conditions: Homo sapiens, DV-90; Lung, DV90, 72 hours
Method: as §1, §2

COV434 = conditions: Ovary, COV434, 72 hours
Method: as §1, §2

SW480 = conditions: Homo sapiens; Colon, SW480, 72 hours
Method: as §1, §2

SiHa = conditions: Homo sapiens, Cervix, 72 hours
Method: as §1, §2

H460 = conditions: Homo sapiens, NCI-H460; Lung, H460, 72 hours
Method: as §1, §2

SW948 = conditions: Homo sapiens; Colon, SW948, 72 hours
Method: as §1, §2

Row | Compound | IC50 (U87MG) [nM] | IC50 (A375) [nM] | IC50 (U118MG) [nM] | IC50 (Caki-1) [nM] | IC50 (LnCap) [nM] | IC50 (HCC 1569) [nM] | IC50 (NCI-H1563) [nM] | IC50 (Hep3B2.1-7) [nM] | IC50 (DU-145) [nM] | IC50 (SW620) [nM] | IC50 (EPLC-272H) [nM] | IC50 (A498) [nM] | IC50 (NCI-H1573) [nM] | IC50 (HuH7) [nM] | IC50 (HL-60) [nM] | IC50 (HT-29) [nM] | IC50 (JIMT-1) [nM] | IC50 (HCT116) [nM] | IC50 (EFO-27) [nM] | IC50 (MDA-MB-468) [nM] | further results
1 | CCCOc1c2cccc1Cc1cccc(c1OCc1nccn1C)Cc1cccc(c1OCCC)Cc1cccc(c1OCc1nccn1C)C2 [(2)] | 2460 | 1170 | 2030 | 3240 | 1190 | 2960 | 3440 | 781 | 1930 | 1760 | 1470 | 1720 | 2210 | 543 | 1450 | 1200 | 2700 | 950 | 1520 | 741 | IC50 (T98G): 3110 nM; IC50 (SNU-1): 2550 nM; IC50 (EFM-192A): 5450 nM; IC50 (MDA MB 435): 2770 nM; IC50 (A549): 1040 nM; IC50 (SW-1783): 3380 nM; IC50 (BT-20): 1270 nM; IC50 (AsPC-1): 834 nM; IC50 (MOLM-13): 1710 nM; IC50 (K562): 1890 nM; IC50 (SNU840): 1150 nM; IC50 (DV90): 2160 nM; IC50 (COV434): 732 nM; IC50 (SW480): 1520 nM; IC50 (SiHa): 1250 nM; IC50 (H460): 727 nM; IC50 (SW948): 2150 nM
2 | CC(C)C[C@H](NC(=O)[C@H](Cc1ccccc1)NC(=O)c1cnccn1)B(O)O [bortezomib, reference compound] | 8.02 | 5.44 | 4.14 | 5.37 | 14.1 | 5.15 | 19.5 | 7.98 | 6.8 | 4.74 | 7.17 | 4.53 | 16.7 | 4.3 | 3.73 | 5.99 | 8.57 | 6.78 | 13.2 | 4.2 | IC50 (T98G): 11.4 nM; IC50 (SNU-1): 28.8 nM; IC50 (EFM-192A): 4.75 nM; IC50 (MDA MB 435): 4.3 nM; IC50 (A549): 13.7 nM; IC50 (SW-1783): 8.6 nM; IC50 (BT-20): 29.5 nM; IC50 (AsPC-1): 12.5 nM; IC50 (MOLM-13): 3.91 nM; IC50 (K562): 14.6 nM; IC50 (SNU840): 5.89 nM; IC50 (DV90): 7.37 nM; IC50 (COV434): 9.24 nM; IC50 (SW480): 5.29 nM; IC50 (SiHa): 7.41 nM; IC50 (H460): 28.8 nM; IC50 (SW948): 8.88 nM
